Results from patent US20240158446A1, “CYCLIC COMPOUND HAVING SELECTIVE INHIBITORY ACTION ON KRAS OVER HRAS AND NRAS” (CHUGAI SEIYAKU KABUSHIKI KAISHA, priority 2021, published 2024).
Like-named read-outs stand apart in the source and are kept apart here. *1 amine or outer side, *2 acyl side, *3 side chain or, on linkers, in order; H or OH if unused. Where a SMILES comes first, the peptide text is derived from it. Bridges are numbered along the chain shown (N, C = ends). [ ]: non-standard residue; d: D form. The star is where a group is joined. hPhe(3-Cl-4-CF3) = N[C@@H](CCc1ccc(C(F)(F)F)c(Cl)c1)C(=O)O; NPrPhe(4-CF3) = CCCN[C@@H](Cc1ccc(C(F)(F)F)cc1)C(=O)O; X18 = Cc1ccc(C[C@@H](C(=O)[*:2])N(CC(C)C)[*:1])cc1; NPrPhe(4-Me) = CCCN[C@@H](Cc1ccc(C)cc1)C(=O)O; NMeGly(cPent) = CN[C@H](C(=O)O)C1CCCC1; NEtLeu = CCN[C@@H](CC(C)C)C(=O)O; NMeD = CN[C@@H](CC(=O)O)C(=O)O; NMeL = CN[C@@H](CC(C)C)C(=O)O; Morpholide = C1CN(*)CCO1; NMeA = CN[C@@H](C)C(=O)O; Ac5c = NC1(C(=O)O)CCCC1; Aze = O=C(O)[C@@H]1CCN1; NEtG = CCNCC(=O)O; Sar = CNCC(=O)O

Assays:
[1] = molecular target: GDP-bound HRAS wild-type protein (Homo sapiens, UniProt P01112); experiment: Binding to HRAS by surface plasmon resonance (SPR), Single Cycle Kinetics; conditions: SPR; for HRAS/KRAS (ratio of KD value with respect to HRAS to KD value with respect to KRAS) / HRAS/KRAS (ratio of KD value for HRAS to KD value for KRAS): GDP-bound HRAS wild-type protein vs GDP-bound KRAS wild-type protein
[2] = molecular target: GDP-bound NRAS wild-type protein (Homo sapiens, UniProt P01111); experiment: Binding to NRAS by surface plasmon resonance (SPR), Single Cycle Kinetics; conditions: SPR; for NRAS/KRAS (ratio of KD value with respect to NRAS to KD value with respect to KRAS) / NRAS/KRAS (ratio of KD value for NRAS to KD value for KRAS): GDP-bound NRAS wild-type protein vs GDP-bound KRAS wild-type protein
[3] = molecular target: GDP-bound KRAS wild-type protein (Homo sapiens, UniProt P01116); experiment: Binding to KRAS by surface plasmon resonance (SPR), Single Cycle Kinetics; conditions: GDP-bound KRAS wild-type protein, read-out: KRAS KD
[4] = SPR Single Cycle Kinetics, 1:1 binding model
[5] = SPR, Single Cycle Kinetics, 1:1 binding model

Sequence of GDP-bound HRAS wild-type protein (P01112 whole entry): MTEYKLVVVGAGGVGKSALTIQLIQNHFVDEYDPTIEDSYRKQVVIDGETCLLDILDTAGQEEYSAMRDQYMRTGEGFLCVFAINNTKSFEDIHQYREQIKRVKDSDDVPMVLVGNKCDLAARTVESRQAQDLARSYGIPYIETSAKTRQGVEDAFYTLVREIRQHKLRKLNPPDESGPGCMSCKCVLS
Sequence of GDP-bound KRAS wild-type protein (P01116 whole entry): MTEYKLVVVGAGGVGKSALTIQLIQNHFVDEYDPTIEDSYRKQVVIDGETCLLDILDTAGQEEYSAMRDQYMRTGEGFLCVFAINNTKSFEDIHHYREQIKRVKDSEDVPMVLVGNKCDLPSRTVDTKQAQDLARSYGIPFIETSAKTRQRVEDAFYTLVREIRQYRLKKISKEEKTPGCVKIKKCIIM
Sequence of GDP-bound NRAS wild-type protein (P01111 whole entry): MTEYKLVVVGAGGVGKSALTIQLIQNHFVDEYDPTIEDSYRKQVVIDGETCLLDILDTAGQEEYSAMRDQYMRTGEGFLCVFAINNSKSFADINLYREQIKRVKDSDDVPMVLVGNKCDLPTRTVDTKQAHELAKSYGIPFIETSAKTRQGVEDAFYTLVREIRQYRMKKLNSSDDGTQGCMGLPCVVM

Compound | Kd [3, 4] [nM] | Kd ([3]; SPR, Single Cycle Kinetics) [nM] | HRAS/KRAS (ratio of KD value for HRAS to KD value for KRAS) [1] | NRAS/KRAS (ratio of KD value for NRAS to KD value for KRAS) [2] | other results
CC[C@H](C)[C@@H]1NC(=O)[C@H](CC2CCCC2)N(C)C(=O)C[C@@H](C(=O)N(C)C)N(C)C(=O)[C@H](C2CCCC2)N(C)C(=O)C2(CCC2)NC(=O)[C@@H]2C[C@@H](F)CN2C(=O)[C@H](CCc2cc(F)c(C(F)(F)F)c(F)c2)NC(=O)CN(C)C(=O)[C@H](Cc2ccc(C(F)(F)F)cc2)N2CC/C=C\C[C@@H](C2=O)N(C)C(=O)CN(C)C1=O [PP1502] | – | – | – | – | HRAS/KRAS (ratio of KD value for HRAS to KD value for KRAS) ([1]; KD ratio class): A (a compound having 10 or more and less than 20 is denoted as A); NRAS/KRAS (ratio of KD value for NRAS to KD value for KRAS) ([2]; KD ratio class): A (a compound having 10 or more and less than 20 is denoted as A); Kd [3, 5]: 0.038 nM
CCCN1C(=O)CN(C)C(=O)CN(C)C(=O)[C@H]([C@@H](C)CC)NC(=O)[C@H](CC(C)C)N(C)C(=O)C[C@@H](C(=O)N2CCOCC2)N(C)C(=O)[C@H](C2CCCC2)N(C)C(=O)C2(CCCC2)NC(=O)[C@@H]2CCCN2C(=O)[C@H](CCc2ccc(C(F)(F)F)c(Cl)c2)NC(=O)CN(CC)C(=O)[C@@H]1Cc1ccc(C)cc1 [PP0066] ([NMeL]I[Sar][Sar][NPrPhe(4-Me)][NEtG][hPhe(3-Cl-4-CF3)]P[Ac5c][NMeGly(cPent)][NMeD]-Morpholide; lactam N-11) | 1.4 | – | C (A compound having a KD ratio of 0.1 or more and less than 3 is denoted as C) | B (a compound having 3 or more and less than 10 is denoted as B) | –
CCC[C@H]1C(=O)N[C@@H](C2CCCCC2)C(=O)N(C)CC(=O)N(C)[C@H]2C/C=C\CCN(C2=O)[C@@H](Cc2ccc(C(F)(F)F)cc2)C(=O)N(C)CC(=O)N[C@@H](CCc2ccc(C(F)(F)F)c(Cl)c2)C(=O)N2C[C@H](OCC)C[C@H]2C(=O)NC2(CC(C)(C)C2)C(=O)N(C)[C@@H]([C@@H](C)CC)C(=O)N(C)[C@H](C(=O)N(C)C)CC(=O)N1C [PP3015] | – | 2.2 | A (a compound having 10 or more and less than 20 is denoted as A) | AA (a compound having 20 or more is denoted as AA) | –
CC[C@H](C)[C@@H]1NC(=O)[C@H](CC(C)C)N(C)C(=O)C[C@@H](C(=O)N2CCOCC2)N(C)C(=O)[C@H](C2CCCC2)N(C)C(=O)C2(CCCC2)NC(=O)[C@@H]2CCCN2C(=O)[C@H](CCc2ccc(C(F)(F)F)c(Cl)c2)NC(=O)CN(C)C(=O)[C@H](Cc2ccc(C)cc2)N(CC(C)C)C(=O)CN(C)C(=O)CN(C)C1=O [PP0063] ([NMeL]I[Sar][Sar][X18][Sar][hPhe(3-Cl-4-CF3)]P[Ac5c][NMeGly(cPent)][NMeD]-Morpholide; lactam N-11) | 2.9 | – | C (A compound having a KD ratio of 0.1 or more and less than 3 is denoted as C) | C (A compound having a KD ratio of 0.1 or more and less than 3 is denoted as C) | –
CCO[C@@H]1C[C@H]2C(=O)NC3(CCC3)C(=O)N(C)[C@@H](C(CC)CC)C(=O)N(C)[C@H](C(=O)N(C)C)CC(=O)N(C)[C@@H](CC(C)C)C(=O)N[C@@H]([C@@H](C)CC)C(=O)N(C)CC(=O)N(C)[C@H]3C/C=C\CCN(C3=O)[C@@H](Cc3ccc(F)cc3)C(=O)N(C)CC(=O)N[C@@H](CCc3cc(F)c(C(F)(F)F)c(F)c3)C(=O)N2C1 [PP1519] | – | – | – | – | HRAS/KRAS (ratio of KD value for HRAS to KD value for KRAS) ([1]; KD ratio class): A (a compound having 10 or more and less than 20 is denoted as A); NRAS/KRAS (ratio of KD value for NRAS to KD value for KRAS) ([2]; KD ratio class): A (a compound having 10 or more and less than 20 is denoted as A); Kd [3, 5]: 0.41 nM
CCCN1C(=O)[C@@H]2CCN2C(=O)[C@H](C)N(C)C(=O)[C@H]([C@@H](C)CC)NC(=O)[C@H](CC(C)C)N(CC)C(=O)C[C@@H](C(=O)N2CCOCC2)N(C)C(=O)[C@H](C2CCCC2)N(C)C(=O)C2(CCCC2)NC(=O)[C@@H]2CCCN2C(=O)[C@H](CCc2ccc(C(F)(F)F)c(Cl)c2)NC(=O)CN(C)C(=O)[C@@H]1Cc1ccc(C(F)(F)F)cc1 [PP0151] ([NEtLeu]I[NMeA][Aze][NPrPhe(4-CF3)][Sar][hPhe(3-Cl-4-CF3)]P[Ac5c][NMeGly(cPent)][NMeD]-Morpholide; lactam N-11) | 0.5 | – | C (A compound having a KD ratio of 0.1 or more and less than 3 is denoted as C) | C (A compound having a KD ratio of 0.1 or more and less than 3 is denoted as C) | –

Now from value to compound, other results behind:

Kd [3, 4] [nM] | Kd ([3]; SPR, Single Cycle Kinetics) [nM] | Compound | HRAS/KRAS (ratio of KD value for HRAS to KD value for KRAS) [1] | NRAS/KRAS (ratio of KD value for NRAS to KD value for KRAS) [2] | other results
0.1 | – | CC[C@H](C)[C@@H]1NC(=O)[C@H](CC(C)C)N(C)C(=O)C[C@@H](C(=O)N2CCOCC2)N(C)C(=O)[C@H](C2CCCC2)N(C)C(=O)C2(COC2)NC(=O)[C@@H]2CCCN2C(=O)[C@H](CCc2cc(F)c(C(F)(F)F)c(F)c2)NC(=O)CN(C)C(=O)[C@H](Cc2ccc(C(F)(F)F)cc2)N2CCCC[C@@H](C2=O)N(C)C(=O)CN(C)C1=O [PP0563] | – | – | HRAS/KRAS (ratio of KD value with respect to HRAS to KD value with respect to KRAS) [1]: B (a compound having 3 or more and less than 10 is denoted as B); NRAS/KRAS (ratio of KD value with respect to NRAS to KD value with respect to KRAS) [2]: B (a compound having 3 or more and less than 10 is denoted as B)
– | 0.27 | CC[C@H](C)[C@@H]1NC(=O)[C@H](CC(C)C)N(C)C(=O)C[C@@H](C(=O)N2CCOCC2)N(C)C(=O)[C@H](C2CCCC2)N(C)C(=O)C2(CCC2)NC(=O)[C@@H]2C[C@@H](OC)CN2C(=O)[C@H](CCc2cc(F)c(C(F)(F)F)c(F)c2)NC(=O)CN(C)C(=O)[C@H](Cc2ccc(C(F)(F)F)cc2)N2CCCCC[C@@H](C2=O)N(C)C(=O)CN(C)C1=O [PP1016] | B (a compound having 3 or more and less than 10 is denoted as B) | A (a compound having 10 or more and less than 20 is denoted as A) | –
– | 0.1 | C=CC[C@H]1C(=O)N[C@@H]([C@@H](C)CC)C(=O)N(C)CC(=O)N(C)[C@H]2CCCCN(C2=O)[C@@H](Cc2ccc(C(F)(F)F)cc2)C(=O)N(C)CC(=O)N[C@@H](CCc2cc(F)c(C(F)(F)F)c(F)c2)C(=O)N2C[C@H](OCC)C[C@H]2C(=O)N[C@](C)(CC=C)C(=O)N(C)[C@@H](C2CCCC2)C(=O)N(C)[C@H](C(=O)N2CCOCC2)CC(=O)N1C [PP0874] | B (a compound having 3 or more and less than 10 is denoted as B) | C (A compound having a KD ratio of 0.1 or more and less than 3 is denoted as C) | –
0.0077 | – | CC[C@H](C)[C@@H]1NC(=O)[C@H](C)N(C)C(=O)C[C@@H](C(=O)N(C)C)N(C)C(=O)[C@H](C2CCCC2)N(C)C(=O)C2(CCC2)NC(=O)[C@@H]2CC(F)(F)CN2C(=O)[C@H](CCc2cc(F)c(C(F)(F)F)c(F)c2)NC(=O)CN(C)C(=O)[C@H](Cc2ccc(C(F)(F)F)cc2)N2CCCC[C@@H](C2=O)N(C)C(=O)CN(C)C1=O [PP0584] | – | – | HRAS/KRAS (ratio of KD value with respect to HRAS to KD value with respect to KRAS) [1]: C (A compound having a KD ratio of 0.1 or more and less than 3 is denoted as C); NRAS/KRAS (ratio of KD value with respect to NRAS to KD value with respect to KRAS) [2]: C (A compound having a KD ratio of 0.1 or more and less than 3 is denoted as C)
– | 0.4 | CCO[C@@H]1C[C@H]2C(=O)NC3(CCC3)C(=O)N(C)[C@@H](CC(F)F)C(=O)N(C)[C@H](C(=O)N3CCOCC3)CC(=O)N(C)[C@@H](CC(C)C)C(=O)N[C@@H]([C@@H](C)CC)C(=O)N(C)CC(=O)N(C)[C@H]3CCCCN(C3=O)[C@@H](Cc3ccc(C(F)(F)F)cc3)C(=O)N(C)CC(=O)N[C@@H](CCc3cc(F)c(C(F)(F)F)c(F)c3)C(=O)N2C1 [PP0813] | B (a compound having 3 or more and less than 10 is denoted as B) | C (A compound having a KD ratio of 0.1 or more and less than 3 is denoted as C) | –
– | 0.057 | CCO[C@@H]1C[C@H]2C(=O)NC3(CC(C)(C)C3)C(=O)N(C)[C@@H](C3CCCC3)C(=O)N(C)[C@H](C(=O)N(C)C)CC(=O)N(C)[C@@H](CC(C)C)C(=O)N[C@@H]([C@@H](C)CC)C(=O)N(C)CC(=O)N(C)[C@H]3C/C=C\CCN(C3=O)[C@@H](Cc3ccc(C(F)(F)F)cc3)C(=O)N(C)CC(=O)N[C@@H](CCc3cc(F)c(C(F)(F)F)c(F)c3)C(=O)N2C1 [PP1650, (2S,8S,12R,14S,20S,23S,27S,30S,36S,38Z)-20-cyclopentyl-8-[2-[3,5-difluoro-4-(trifluoromethyl)phenyl]ethyl]-12-ethoxy-27-isobutyl-N,N,3′,3′,4,19,22,26,32,35-decamethyl-30-[(1S)-1-methylpropyl]-3,6,9,15,18,21,25,28,31,34,42-undecaoxo-2-[[4-(trifluoromethyl)phenyl]methyl]spiro[1,4,7,10,16,19,22,26,29,32,35-undecazatricyclo[34.5.1.0^10,14]dotetracont-38-ene-17,1′-cyclobutane]-23-carboxamide] | – | – | HRAS/KRAS (KD ratio) ([1]; ratio of KD for GDP-bound HRAS wild-type protein to KD for KRAS): A (a compound having 10 or more and less than 20 is denoted as A); NRAS/KRAS (KD ratio) ([2]; ratio of KD for GDP-bound NRAS wild-type protein to KD for KRAS): A (a compound having 10 or more and less than 20 is denoted as A)
0.052 | – | CC[C@H](C)[C@@H]1NC(=O)[C@H](CC(C)C)N(C)C(=O)C[C@@H](C(=O)N2CCOCC2)N(C)C(=O)[C@H](C2CCCC2)N(C)C(=O)C2(CCCC2)NC(=O)[C@@H]2CCCN2C(=O)[C@H](CCc2cc(F)c(C(F)(F)F)c(F)c2)NC(=O)CN(C)C(=O)[C@H](Cc2ccc(C(F)(F)F)cc2)N2CCCC[C@@H](C2=O)N(C)C(=O)CN(C)C1=O [PP0552] | – | – | HRAS/KRAS (ratio of KD value with respect to HRAS to KD value with respect to KRAS) [1]: B (a compound having 3 or more and less than 10 is denoted as B); NRAS/KRAS (ratio of KD value with respect to NRAS to KD value with respect to KRAS) [2]: B (a compound having 3 or more and less than 10 is denoted as B)
